The values that follow come from patent publication US20140134169A1, “Methods of Treating Ovarian Cancer with Dll4 Antagonists” (Regeneron Pharmaceuticals, Inc., priority 2012, published 2014).

Assay [1] deals with rat C6 tumor cells (glioblastoma cells). Nature of the assay: Growth of rat C6 tumors implanted in SCID mice. It is filed as in vivo. The protocol: Each mouse was implanted subcutaneously (sc) with 1×10^6 rat C6 tumor cells (glioblastoma cells). […] Since these mice expressed mouse Dll4, the Dll4 Ab used in this experiment was prepared in-house, based on the published sequence (WO 2007/143689), and designated as REGN577. […] A total of 30 tumor-bearing male mice were randomized into six groups (N=5). […] Tumor size was calculated using the formula, (length×width2)/2.
TGI and TGD were determined (Table 3).

Assay [2] relates to human MDA-MB-231 breast tumor cells. Briefly: Growth of human MDA-MB-231 breast tumors implanted in SCID mice.
Protocol: The effect of anti-Dll4 antibody in combination with docetaxel (TAXOTERE®, sanofi-aventis) on tumor growth was evaluated on tumors implanted in Severe Combined Immunodeficiency (SCID) mice. […] After the tumors were established in the mice (tumor size of ˜150-200 mm^3, approximately 45 days after implantation), mice were treated with hFc, docetaxel, Dll4 antibody, or a combination of docetaxel plus Dll4 antibody. A total of 25 tumor-bearing male mice were randomized into five groups (N=5 mice per group). […] Docetaxel and/or Dll4 antibody were administered on the same day. Animals were treated 2 times per week and received a total of 3 doses. Starting from the day of initial treatment, body weight and tumors were measured twice a week until the mice are euthanized. Mice were euthanized when tumors reached ˜600 mm^3 in size. Tumor size was calculated using the formula (length×width^2)/2.
The control tumors reached ˜600 mm^3 and were harvested on day 63.
A further assay relates to A2780 cells. Briefly: A2780 ovarian xenograft (intraperitoneal) tumor growth inhibition. It is filed as in vivo, human. The settings on record: SCID mice (native murine Dll4); REGN421 2.5 mg/kg 1x/week, mDll4Ab1 5 mg/kg 1x/week, VEGF-Trap 10 mg/kg 2x/week. The protocol:
Ovarian tumor xenograft cells were implanted into humanized Dll4 SCID mice or vendor SCID mice (i.e., SCID mice expressing native murine Dll4). After implantation, mice were treated with REGN421 (anti-human Dll4 antibody, binds to human Dll4), mDll4Ab1 (anti-murine Dll4 antibody, binds to murine Dll4), or a human Fc domain control protein. In one study, mice were treated with VEGF-Trap, mDll4Ab1 or VEGF-Trap plus mDll4Ab1. TOV-112D cells (5×10^6) were implanted subcutaneously into the right flank of humanized Dll4 (n=4) or vendor SCID mice (n=7). Treatment with REGN421 (2.5 mg/kg, 1×/week) or mDll4Ab1 (5 mg/kg, 1×/week) vs. hFc control was initiated one week after tumor cell implantation. Animals were treated for 2 to 3 weeks. A2780 cells (2×10^6) were implanted intraperitoneally into humanized Dll4 or vendor SCID mice (n=4-5). Treatment with REGN421 (2.5 mg/kg, 1×/week) or mDll4Ab1 (5 mg/kg, 1×/week) vs. hFc control was initiated one week after tumor cell implantation. For the A2780 combination study, simultaneous treatment with mDll4Ab1 (5 mg/kg, 1×/week) and VEGF-Trap (10 mg/kg, 2×/week) was initiated one week after tumor cell implantation. A VEGF-Trap single treatment arm was included in this study. Animals bearing A2780 tumors were treated for 4-5 weeks. SKOV-3 cells (5×10^6) in matrigel were implanted subcutaneously and tumor-bearing animals (n=10) were dosed with REGN421 (2.5 mg/kg) and mDll4Ab1 (5 mg/kg) once weekly. OVCAR-3 cells (1×10^7) were implanted subcutaneously into the right flank of vendor SCID mice (n=7). Treatment with mDll4Ab1 (5 mg/kg 1×/week) vs. hFc control was initiated 66 days after tumor cell implantation. Animals were treated for a total of 5 weeks. Tumor growth inhibition (TGI) was measured as detailed above.

For assay [3], the system named is human A549 tumor cells (non-small cell lung cancer). Briefly: Growth of human A549 tumors implanted in humanized Dll4 SCID mice. The format is in vivo. The protocol:
(§1) Tumor growth delay, TGD, was assessed as the difference in days between treated (T) versus control (C) tumors when each cohort reached a specified tumor size. The predetermined tumor size for this experiment was 600 mm^3.
Each mouse was implanted subcutaneously (sc) with 5×10^6 human A549 tumor cells (non-small cell lung cancer or “NSCLC”). […] A total of 36 mice were divided into 6 groups (n=6 per cohort). The first group was treated sc with hFc at 2 mg/kg; the second group was treated sc with REGN421 at 2 mg/kg; the third and fourth groups were treated ip with cisplatin at 2.5 and 4.5 mg/kg, respectively; the fifth group was treated sc with REGN421 at 2 mg/kg and ip with cisplatin at 2.5 mg/kg; and the sixth group was treated sc with REGN421 at 2 mg/kg and ip with cisplatin at 4.5 mg/kg. REGN421 was administered every 3-4 days starting on day 29 and mice received three doses total. Cisplatin was administered every 24 hours starting on day 29 and mice received two doses total.
To assess the effects of REGN421 and cisplatin as single agents or in combination we measured tumor size (volume), beginning three days before the initial REGN421 treatment, on the day of each agent treatment (days 29, 30, 33, 36) and thereafter every 3-4 days until tumors reached ˜600 mm^3 in size.

The test system of assay [4] is human VM-Cub1 tumor cells (bladder carcinoma cells). Briefly: Growth of human VM-Cub1 tumors implanted in humanized Dll4 SCID mice. It is filed as in vivo. The settings on record: for TGI(%): day 32; for TGD: to 600 mm3. The procedure:
The humanized Dll4 SCID mouse was made by replacing the entire extracellular domain of the mouse Dll4 gene with the corresponding extracellular region of the human Dll4 gene (7 kb) in embryonic stem (ES) cells. Homozygous hDll4 mice were generated and bred into SCID background.
A total of 45 mice were divided into nine groups (n=5 per cohort). The first group was treated subcutaneously (sc) with hFc at 2 mg/kg; the second and third groups were treated sc with REGN421 at 0.5 and 2 mg/kg, respectively; the fourth and fifth groups were treated intraperitoneally (ip) with cisplatin at 0.5 and 2 mg/kg, respectively; the sixth group was treated sc with REGN421 at 0.5 mg/kg and ip with cisplatin at 0.5 mg/kg; the seventh group was treated sc with REGN421 at 0.5 mg/kg and ip with cisplatin at 2 mg/kg; the eighth group was treated sc with REGN421 at 2 mg/kg and ip with cisplatin at 0.5 mg/kg; and the ninth group was treated sc with REGN421 at 2 mg/kg and ip with cisplatin at 2 mg/kg. REGN421 was administered every 3-4 days starting on day 14 and mice received three doses total. Cisplatin was administered every 24 hours starting on day 14; mice received four doses total.
To assess the effects of REGN421 and cisplatin as single agents or in combination treatments, the changes in tumor size were recorded. Tumor growth was measured three days before the initial REGN421 treatment, on the day of each REGN421 treatment (days 14, 17 and 21) and thereafter every 3-4 days until tumors reached ˜600 mm3 in size. In vivo tumor size was calculated using the formula (length×width2)/2 (FIG. 1 and Table 1).
Tumor Growth Inhibition, TGI, was determined by calculating the difference in tumor size for treated (T) versus vehicle control (C) tumor at the day the control cohort was euthanized (i.e., at day 32); TGI=[1−(Tfinal−Tinitial)/(Cfinal−Cinitial)]×100.
as §1

Assay [5] concerns human HCT116 tumor cells (CRC). Nature of the assay: Growth of human HCT116 tumors in humanized Dll4 SCID mice (5-FU study). It is filed as in vivo. The procedure: Each mouse was implanted subcutaneously (sc) with 5×10^6 human HCT116 tumor cells (CRC). […] The mice were then treated with hFc, REGN421, 5-FU or combination of REGN421 and 5-FU. A total of 30 mice were divided into 6 groups (n=5 per cohort). The first group was treated sc with hFc at 2 mg/kg; the second group was treated sc with REGN421 at 2 mg/kg; the third and fourth groups were treated ip with 5-FU at 15 and 25 mg/kg, respectively; the fifth group was treated sc with REGN421 at 2 mg/kg and ip with 5-FU at 15 mg/kg; and the sixth group was treated sc with REGN421 at 2 mg/kg and ip with 5-FU at 25 mg/kg. REGN421 was administered every 3-4 days starting on day 22 and mice received three doses total. 5-FU was administered every 3-4 days starting on day 22 and mice received three doses total.
To assess the effects of REGN421 and 5-FU as single agents or in combination, the changes in tumor size (volume) were measured, beginning three days before the initial REGN421 treatment, and then on the day of each agent treatment (days 22, 26, 29) and thereafter every 3-4 days until tumors reach ˜600 mm^3 in size. In vivo tumor size is calculated using the formula (length×width^2)/2 (FIG. 3 and Table 5).

Another assay relates to human HCT116 tumor cells. Nature of the assay: Growth of human HCT116 tumors in humanized Dll4 SCID mice (irinotecan study). The format is in vivo. The procedure:
Each mouse was implanted subcutaneously (sc) with 5×10^6 human HCT116 tumor cells. […] The mice were then treated with hFc, REGN421, irinotecan or combination of REGN421 and irinotecan. A total of 30 mice were divided into 6 groups (n=5 per cohort). The first group was treated sc with hFc at 2 mg/kg; the second group was treated sc with REGN421 at 2 mg/kg; the third and fourth groups were treated ip with irinotecan at 7.5 and 25 mg/kg, respectively; the fifth group was treated sc with REGN421 at 2 mg/kg and ip with irinotecan at 7.5 mg/kg; and the sixth group was treated sc with REGN421 at 2 mg/kg and ip with irinotecan at 25 mg/kg. REGN421 was administered every 3-4 days starting on day 15 and mice received three doses total. Irinotecan was administered every 3-4 days starting on day 15 and mice received three doses total.
To assess the effects of REGN421 and irinotecan as single agents or in combination treatments, the changes in tumor size (volume) are measured, starting three days before the initial REGN421 treatment, and then on the day of each agent treatment (days 15, 19, 22) and thereafter every 3-4 days until tumors reach ˜600 mm^3 in size. In vivo tumor size is calculated using the formula (length×width^2)/2.

Setting [6] is: docetaxel 4.5 mg/kg iv (13.5 mg/kg total).
The mark [7] stands for this setting: docetaxel 6 mg/kg iv (18 mg/kg total).
The mark [8] stands for this setting: cisplatin 2.5 mg/kg ip (5 mg/kg total).
Setting [9] is: cisplatin 4.5 mg/kg ip (9 mg/kg total).
The mark [10] stands for this setting: 5-FU 15 mg/kg ip (45 mg/kg total).
Setting [11] is: 5-FU 25 mg/kg ip (75 mg/kg total).
[12] abbreviates: irinotecan 7.5 mg/kg ip (22.5 mg/kg total).
Setting [13] is: irinotecan 25 mg/kg ip (75 mg/kg total).

As to `CC(=O)O[C@@]12CO[C@@H]1C[C@H](O)[C@@]1(C)C(=O)[C@H](O)C3=C(C)[C@@H](OC(=O)[C@H](O)[C@@H](NC(=O)OC(C)(C)C)c4ccccc4)C[C@@](O)([C@@H](OC(=O)c4ccccc4)[C@H]21)C3(C)C` [Docetaxel, docetaxel], the “TGD” value stood at 6 days in assay [1] (setting [6]), 7 days in assay [1] (setting [7]), 4 days in assay [2] (setting [6]) and 4 days in assay [2] (setting [7]). Besides, the “TGI(%) at Day 25” value is 62% in assay [1] (setting [6]), 70% in assay [1] (setting [7]), 37% in assay [2] (setting [6]) and 52% in assay [2] (setting [7]).
Turning to “VEGF-Trap: VEGF receptor-based chimeric molecule, SEQ ID NO:121 [reference compound]”, in the assay with A2780 cells, the “% TGI” value was 88%.
`N.N.[Cl][Pt][Cl]` [Cisplatin, cis-diamminedichloroplatinum]: the “TGD” value in assay [3] (setting [8]) is reported as 4 days; in assay [3] (setting [9]) it was 11 days; in assay [4] (cisplatin 0.5 mg/kg/dose ip x4) it was 13 days; in assay [4] (cisplatin 2 mg/kg/dose ip x4) it was 9 days. The “TGI (%) at Day 57” value in assay [3] (setting [8]) came out at 35%; in assay [3] (setting [9]) it was 22%. In addition, the “Euthanized” value in assay [4] (cisplatin 0.5 mg/kg/dose ip x4) turned out to be 45 days; in assay [4] (cisplatin 2 mg/kg/dose ip x4), 41 days. Also, the “TGI(%)” value turned out to be 60.7% in assay [4] (cisplatin 0.5 mg/kg/dose ip x4); 61% in assay [4] (cisplatin 0.5 mg/kg/dose ip x4, listed as cisplatin); 53.8% in assay [4] (cisplatin 2 mg/kg/dose ip x4); 54% in assay [4] (cisplatin 2 mg/kg/dose ip x4, listed as cisplatin).
As to `O=c1[nH]cc(F)c(=O)[nH]1` [5-FU, 5-fluorouracil], in assay [5] (setting [10]), the “TGD” value was 4 days and the “TGI(%) at Day 39” value worked out at 5.6%. Moreover, in assay [5] (setting [11]), the “TGD” value is reported as 2 days and the “TGI(%) at Day 39” value is 0%.
For the compound `CCc1c2c(nc3ccc(OC(=O)N4CCC(N5CCCCC5)CC4)cc13)-c1cc3c(c(=O)n1C2)COC(=O)[C@]3(O)CC` [Irinotecan, irinotecan], the “TGD” value in the assay with human HCT116 tumor cells (setting [12]) was determined as 8 days; in the assay with human HCT116 tumor cells (setting [13]), 16 days. Besides, the “TGI(%) at Day 39” value in the assay on human HCT116 tumor cells (setting [12]) is listed as 71.2%; with human HCT116 tumor cells (setting [13]) it was 100.5%.
